Measurements published in PMC7351026, “Serum Half-Lives for Short- and Long-Chain Perfluoroalkyl Acids after Ceasing Exposure from Drinking Water Contaminated by Firefighting Foam” (Environmental Health Perspectives, 2020).

Key:
[1] = Individual serum elimination rate and half-life (linear regression per employee); settings: individual estimate; for half-life: human, serum, oral, HL (half-life);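 for HL (half-life): half-life in years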
Description: (§1) Serum PFAS concentrations were log-transformed. Time was calculated as the elapsed days between supply of clean bottled water and […] blood sampling. We assumed one compartment, first-order elimination kinetics. In this kinetic model, the body is considered as one homogeneous volume in which mixing is instantaneous and from which PFAS could be absorbed, transferred, and eliminated according to the rate of elimination that is proportional to the concentration of PFAS in the body. Two methods were used to estimate serum elimination rate constant (k) and half-life for each PFAS:
Method 2: For estimation of individual k, linear regression was used to derive the slope ( β ) of the logarithm of serum concentrations vs. time for each employee. The negative value of the slope ( −β ) for each individual was equivalent to the individual k, and individual serum elimination half-life was calculated as ln2/k for each PFAS. If β was positive (i.e., PFAS concentrations tended to increase over the five samplings), the half-life was not calculated.

[2] = Background serum PFAS levels in reference population from Karlshamn; assay type: in vivo, human; settings: reference group from Karlshamn without PFAS contamination in drinking water, N=58, sampled 2016
Text: For comparison with Swedish general background PFAS serum levels, we referred to the PFAS levels observed in a reference population from Karlshamn, a municipality in southern Sweden without PFAS contamination in the municipal drinking water. In 2016, 226 individuals were sampled. Fifty-nine individuals were randomly selected for analyzing other short-chain PFAS than the legacy ones, using the same modified method as for the airport employees. Fifty-eight individuals within the same age range as the airport employees (i.e., >22 years of age ) were included in the comparison. For a detailed description of this population see Li et al. ([2018]).

[3] = Population average serum elimination rate and half-life (linear mixed model, one compartment, first-order); settings: population average; for half-life: human, serum, oral, Half-life (95% CI)
Description: as §1
Briefly, in the linear mixed model In Cij=αi+tijβ+Xiβ′+εij, Cij is the serum concentration of PFAS for individual i at sampling round j; αi is the subject-specific intercept (random intercept); tij is the time; β is the average slope; Xi is a vector of fixed covariates for individual i; β′ stands for the fixed effect coefficients; and εij is the random error term. We modified the model by excluding the subject-specific slope (random slope) due to a failure to converge after inclusion, which may be due to the limited number of study subjects. The negative value of the average slope ( −β ) is the population average k, and average half-life is calculated as ln2/k .
In the linear mixed model, we included only age and sex as covariates. We based covariate selection on factors that could conceivably confound the PFAS half-life estimation. Working task, duration of employment, number of glasses of water per day, blood donation, and pregnancy before mitigation of PFAS exposure from drinking water can influence the initial serum levels but would not be expected to influence the PFAS half-life.
A sensitivity analysis was performed using the same linear mixed model but with Cij as the serum levels after subtracting general background levels (using the median levels obtained from the nonexposed reference population). If the serum PFAS levels after subtraction were lower than the half of the background levels, they were replaced with half of the background levels.

[4] = general Swedish population (Ronneby, 106 Swedes) with high exposure through drinking water, 2 y follow-up from 6 months after clean water; ref Li et al. 2018; cited from earlier work
[5] = Urine/serum ratio in paired samples; assay type: in vivo, human; settings: mean of four paired samplings per subject, 17 airport employees
Description: Urinary PFAS concentrations were specific-gravity adjusted. The ratio of urine and serum concentration for each PFAS (urine/serum ratio) at each sampling was calculated based on PFAS concentrations in paired serum and urine samples from 17 employees. Then the personal average urine/serum ratio was calculated using the mean value of repeated samplings for each employee.

[6] = model with original serum levels, age and sex as covariates
[7] = model with serum levels after subtraction of background exposure (sensitivity analysis)

Compound	Elimination rate ([1]; subject 1, 5 samples) [yearly]	Elimination rate ([1]; subject 2, 5 samples) [yearly]	Elimination rate ([1]; subject 3, 5 samples) [yearly]	Elimination rate ([1]; subject 4, 5 samples) [yearly]	Elimination rate ([1]; subject 5, 5 samples) [yearly]	Elimination rate ([1]; subject 6, 4 samples) [yearly]	Elimination rate ([1]; subject 7, 5 samples) [yearly]	Elimination rate ([1]; subject 8, 5 samples) [yearly]	Elimination rate ([1]; subject 9, 5 samples) [yearly]	Elimination rate ([1]; subject 10, 5 samples) [yearly]	Elimination rate ([1]; subject 11, 5 samples) [yearly]	Elimination rate ([1]; subject 12, 5 samples) [yearly]	Elimination rate ([1]; subject 13, 5 samples) [yearly]	Elimination rate ([1]; subject 14, 4 samples) [yearly]	Elimination rate ([1]; subject 15, 5 samples) [yearly]	Elimination rate ([1]; subject 16, 5 samples) [yearly]	Elimination rate ([1]; subject 17, 5 samples) [yearly]	PFAS serum level, median (range) [2]	Constant elimination rate (95% CI) [3, 6]	Constant elimination rate (95% CI) [3, 7]	further results
O=S(=O)(O)C(F)(F)C(F)(F)C(F)(F)C(F)(F)C(F)(F)C(F)(F)F [PFHxS, perfluorohexane sulfonic acid]	0.2	0.3	0.5	0.1	0.1	−0.1	0.3	−0.01	−0.04	0.4	0.2	0.4	0.5	0.6	0.3	0.04	0.4	0.59 ( <LOD –1.2) ng/mL	0.24 (0.16, 0.33) yearly	0.24 (0.16, 0.33) yearly	half-life ([1]; subject 1, 5 samples): 1280 days; half-life ([1]; subject 2, 5 samples): 730 days; half-life ([1]; subject 3, 5 samples): 548 days; half-life ([1]; subject 4, 5 samples): 3510 days; half-life ([1]; subject 5, 5 samples): 1720 days; half-life ([1]; subject 7, 5 samples): 840 days; half-life ([1]; subject 10, 5 samples): 694 days; half-life ([1]; subject 11, 5 samples): 1100 days; half-life ([1]; subject 12, 5 samples): 584 days; half-life ([1]; subject 13, 5 samples): 511 days; half-life ([1]; subject 14, 4 samples): 438 days; half-life ([1]; subject 15, 5 samples): 804 days; half-life ([1]; subject 16, 5 samples): 6940 days; half-life ([1]; subject 17, 5 samples): 584 days; half-life [3, 6]: 1040 days; half-life [3, 7]: 1040 days; Average half-life [4]: 5.3 y; Personal average urine/serum ratio, median (range) [5]: 0.00093 (0.0006–0.0018)
perfluoro-3/4/5-methylheptanesulfonate [3/4/5m-PFOS]	0.4	0.3	0.4	0.1	0.2	0.04	0.1	−0.2	0.1	0.2	2.0	0.5	0.5	0.3	2.2	0.3	1.9	0.79 (0.10–2.2) ng/mL	0.64 (0.18, 1.1) yearly	0.83 (0.24, 1.42) yearly	HL (half-life) ([1]; subject 1, 5 samples): 1.9 year; HL (half-life) ([1]; subject 2, 5 samples): 2.1 year; HL (half-life) ([1]; subject 3, 5 samples): 1.7 year; HL (half-life) ([1]; subject 4, 5 samples): 11 year; HL (half-life) ([1]; subject 5, 5 samples): 3.1 year; HL (half-life) ([1]; subject 6, 4 samples): 19 year; HL (half-life) ([1]; subject 7, 5 samples): 4.8 year; HL (half-life) ([1]; subject 9, 5 samples): 10 year; HL (half-life) ([1]; subject 10, 5 samples): 4.0 year; HL (half-life) ([1]; subject 11, 5 samples): 0.4 year; HL (half-life) ([1]; subject 12, 5 samples): 1.3 year; HL (half-life) ([1]; subject 13, 5 samples): 1.5 year; HL (half-life) ([1]; subject 14, 4 samples): 2.0 year; HL (half-life) ([1]; subject 15, 5 samples): 0.3 year; HL (half-life) ([1]; subject 16, 5 samples): 2.0 year; HL (half-life) ([1]; subject 17, 5 samples): 0.4 year; Half-life (95% CI) [3, 6]: 1.09 (0.63, 3.96) year; Half-life (95% CI) [3, 7]: 0.83 (0.49, 2.84) year
O=S(=O)(O)C(F)(C(F)(F)F)C(F)(F)C(F)(F)C(F)(F)C(F)(F)C(F)(F)C(F)(F)F (centres unmarked) [1m-PFOS, perfluoro-1-methylheptanesulfonate]	0.3	0.1	0.8	−0.1	0.1	−0.1	−0.3	−0.5	−0.3	0.6	1.9	0.03	1.1	1.7	1.3	−0.3	2.2	0.18 ( <LOD –0.59) ng/mL	0.55 (0.09, 1.01) yearly	0.75 (0.15, 1.36) yearly	HL (half-life) ([1]; subject 1, 5 samples): 2.0 year; HL (half-life) ([1]; subject 2, 5 samples): 5.4 year; HL (half-life) ([1]; subject 3, 5 samples): 0.9 year; HL (half-life) ([1]; subject 5, 5 samples): 5.9 year; HL (half-life) ([1]; subject 10, 5 samples): 1.2 year; HL (half-life) ([1]; subject 11, 5 samples): 0.4 year; HL (half-life) ([1]; subject 13, 5 samples): 0.6 year; HL (half-life) ([1]; subject 14, 4 samples): 0.4 year; HL (half-life) ([1]; subject 15, 5 samples): 0.6 year; HL (half-life) ([1]; subject 17, 5 samples): 0.3 year; Half-life (95% CI) [3, 6]: 1.27 (0.69, 7.64) year; Half-life (95% CI) [3, 7]: 0.92 (0.51, 4.77) year
Perfluoro-2/6-methylheptanesulfonate [2/6m-PFOS]	−0.2	0.5	0.7	0.0	0.4	0.4	1.1	−0.2	0.2	−0.007	1.7	1.7	1.0	1.5	1.2	−0.1	1.9	0.46 ( <LOD –1.4) ng/mL	0.66 (0.29, 1.04) yearly	0.95 (0.39, 1.5) yearly	HL (half-life) ([1]; subject 2, 5 samples): 1.3 year; HL (half-life) ([1]; subject 3, 5 samples): 1.0 year; HL (half-life) ([1]; subject 5, 5 samples): 1.6 year; HL (half-life) ([1]; subject 6, 4 samples): 1.7 year; HL (half-life) ([1]; subject 7, 5 samples): 0.6 year; HL (half-life) ([1]; subject 9, 5 samples): 4.2 year; HL (half-life) ([1]; subject 11, 5 samples): 0.4 year; HL (half-life) ([1]; subject 12, 5 samples): 0.4 year; HL (half-life) ([1]; subject 13, 5 samples): 0.7 year; HL (half-life) ([1]; subject 14, 4 samples): 0.5 year; HL (half-life) ([1]; subject 15, 5 samples): 0.6 year; HL (half-life) ([1]; subject 17, 5 samples): 0.4 year; Half-life (95% CI) [3, 6]: 1.04 (0.67, 2.42) year; Half-life (95% CI) [3, 7]: 0.73 (0.46, 1.76) year; Personal average urine/serum ratio, median (range) [5]: 0.0051 (0.00059–0.032)
